Several values for one entry are separate records, joined by “and”; a condition that tells them apart may be missing. Equal entries are not always repeated. Where two headings read alike, the source gives them in different places.

The values below come from PMC7491426 (Frontiers in Chemistry, 2020).

For data set [1], the target named is T1, HNE (human neutrophil elastase) (Homo sapiens, UniProt P08246).
T1 construct: purchased Calbiochem
T1 sequence (P08246 30-267): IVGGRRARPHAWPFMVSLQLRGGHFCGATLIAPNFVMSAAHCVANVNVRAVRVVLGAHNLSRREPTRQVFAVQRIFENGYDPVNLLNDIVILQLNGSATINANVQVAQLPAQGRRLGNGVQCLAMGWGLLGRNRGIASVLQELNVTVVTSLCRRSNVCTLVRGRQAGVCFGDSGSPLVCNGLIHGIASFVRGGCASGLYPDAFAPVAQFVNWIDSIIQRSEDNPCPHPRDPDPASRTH
Kind of data set: HNE inhibition assay (fluorogenic substrate cleavage). In kind it is biochemical. The protocol: Compounds were dissolved in 100% DMSO at 5 mM stock concentrations. […] HNE inhibition assays were performed in black flat-bottom 96-well microtiter plates. Briefly, a solution containing 200 mM Tris–HCl, pH 7.5, 0.01% bovine serum albumin, 0.05% Tween®-20, and 20 mU/mL of HNE (Calbiochem) was added to wells containing different concentrations of each compound. The reaction was initiated by addition of 25 μM elastase substrate (N-methylsuccinyl-Ala-Ala-Pro-Val-7-amino-4-methylcoumarin, Calbiochem) in a final reaction volume of 100 μL/well. Kinetic measurements were obtained every 30 s for 10 min at 25°C using a Fluoroskan Ascent FL fluorescence microplate reader (Thermo Electron, MA) with excitation and emission wavelengths of 355 and 460 nm, respectively. For all compounds tested, the concentration of inhibitor that caused 50% inhibition of the enzymatic reaction (IC50) was calculated by plotting % inhibition vs. logarithm of inhibitor concentration (at least six points).

Data set [2] in a line: Spontaneous hydrolysis (chemical stability) in aqueous phosphate buffer. In kind it is physicochemical. Conditions: pH 7.3, 25°C. The protocol: Spontaneous hydrolysis of selected derivatives was evaluated at 25°C in 0.05 M phosphate buffer, pH 7.3. Kinetics of compound hydrolysis was monitored by measuring changes in absorbance spectra over time using a SpectraMax ABS Plus microplate spectrophotometer (Molecular Devices, Sunnyvale, CA). Absorbance (At) at the characteristic absorption maxima of each compound was monitored over time until no further absorbance decreases occurred (A∞). Using these measurements, we created semilogarithmic plots of log(At-A∞) vs. time, and k′ values were determined from the slopes of these plots. Half-conversion times were calculated using t1/2 = 0.693/k′.
Spontaneous hydrolysis rates of the inhibitors were measured in phosphate buffer at pH 7.3 and 25°C.

In data set [3] the target is T1, HNE (human neutrophil elastase). Kind of data set: Persistence of HNE inhibition over extended period of time (16 h). In kind it is biochemical. The note with it: monitored during 16 h in the presence of 10 μM inhibitor. An excerpt:
The relatively high enzymatic stability of HNE allowed us to evaluate reversibility of the enzyme inhibition over time.

Compound `CCOC(=O)c1cn(S(=O)(=O)c2ccc(OC(=O)C(C)(C)C)cc2)c2ccccc12` [Compound 3a, Ethyl 1-{[4-(pivaloyloxy)phenyl]sulfonyl}-1H-indole-3-carboxylate] had a melting point of 118 to 121 °C. Moreover, the concentration for half-maximal inhibition (IC50) in data set [1] (mean ± SD of three independent experiments, read-out: IC50 (HNE inhibitory activity)) is < 100 nM and 30 nM. The IC50 in data set [1] (restated in Table 5 beside docking geometry, read-out: IC50) was 30 nM. Besides, the “t1/2 for the spontaneous hydrolysis” value in data set [2] (0.05 M phosphate buffer) is listed as 9.6 h. In addition, in data set [2] (phosphate buffer, pH 7.3, 0.05 M phosphate buffer, read-out: t1/2 for the spontaneous hydrolysis (converted)), the half-life was more than 9 h. Also, the “Remaining HNE activity” value in data set [3] amounted to 5.5 ± 1.8%.
